Read-outs that look alike come from different tables or passages of the source. Residues, ends and D or L forms follow the SMILES beside them. Some results are limits rather than exact numbers.

Consider five compounds from patent US9777039B2, “Somatostatin analogs and dimers thereof” (Ipsen Pharma S.A.S., priority 2012, dated 2017).

In test [1] the target is T1, hSSTR2 (Homo sapiens, UniProt P30874).
T1 construct: expressed in transfected cells
The experiment in a line: Somatostatin receptor radioligand binding assay, hSSTR2. The protocol: (§1) The affinities of a test compound for the human somatostatin receptors were determined by radioligand binding assays in CHO-K1 cells stably transfected with each of the somatostatin receptor subtypes, hSSTR1-5. The cDNA coding sequences of the hSSTR1 (GenBank accession No. NM_001049.1), hSSTR2 (GenBank accession No. XM_012697.1), hSSTR3 (GenBank accession No. XM_009963.1), hSSTR4 (GenBank accession No. NM_001052.1) and hSSTR5 (GenBank accession No. XM_012565.1) were subcloned into the mammalian expression vector pcDNA3.1 (Life Technologies). Clonal cell lines stably expressing each of the somatostatin receptors were obtained by transfection into CHO-K1 cells (ATCC) and subsequently selected with culture media containing 0.8 mg/mL of G418 (Life Technologies).
(§2) Membranes for in vitro receptor binding assays were obtained by the following procedures. CHO-K1 cells expressing one of the somatostatin receptors were homogenized in ice-cold buffer with 10 mM Tris-HCl, 5 mM EDTA, 3 mM EGTA, 1 mM phenylmethylsuphonyl fluoride, pH 7.6, using Polytron PT10-35GT (Kinematica) at 18,000 rpm for 30 seconds and centrifuged at 500×g for 10 minutes. The supernatant containing the plasma membranes was centrifuged at 100,000×g for 30 minutes and the pellet was resuspended in buffer containing 20 mM glycine-glycine, 1 mM MgCl2, 250 mM sucrose, pH 7.2, for storage at −80° C.
For the hSSTR1, 2 and 5 assays, membranes and various concentrations of test compounds were incubated in 96-well plates for 60 minutes at 25° C. with 0.05 nM [^125I-Tyr^11]-SRIF-14 (for hSSTR1; PerkinElmer Life Science), 0.05 nM [^125I-Tyr]-seglitide (for hSSTR2; PerkinElmer Life Science) or 0.05 nM [^125I-Tyr]-DPhe-cyclo(Cys-Tyr-DTrp-Lys-Val-Cys)-Thr-NH2 (for hSSTR5; PerkinElmer Life Science) in 50 mM HEPES, 0.2% BSA, 0.1 mM MgCl2, pH 7.5.
The incubations were terminated by rapid filtration through GF/C glass microfiber filter plates (pre-wet with 0.3% polyethyleneimine and 0.1% BSA) using a 96-well cell harvester (Brandel). Plates were washed six times with 1 mL/well aliquots of ice-cold buffer containing 50 mM Tris buffer, pH 7.7. Specific binding is defined as the total radioligand bound minus the bound in the presence of 1000 nM SRIF-14.

In test [2] the target is T1, hSSTR2. The experiment in a line: Intracellular calcium mobilization assay (FLIPR Calcium 4 assay kit). The note with it: for Emax: maximal effect in percentage of the maximal effect of SRIF-14, read-out: hSSTR2 % Emax ± SEM. In kind it is cell-based. The protocol:
The ability of select compounds according to the present invention to activate hSSTR2 was determined by the intracellular calcium mobilization assay using FLIPR Calcium 4 assay kit (Molecular Devices).
Cells expressing hSSTR2 were plated in 384-well microplates in tissue culture media and incubated for 16-24 hours at 37° C. in a humidified atmosphere with 5% CO2. Medium was replaced by loading buffer containing Hank's buffered saline, 20 mM HEPES, 2.5 mM probenecid and Calcium 4 dye, and the plates were incubated at 37° C. for 60 minutes. Various concentrations of the test compounds were applied to the cells during the fluorescence measurement with excitation at 485 nm and emission at 525 nm using the Flexstation III microplate reader (Molecular Devices).
The half maximal effective concentrations (EC50) were calculated by fitting data to sigmoid dose-response curves using GraphPad Prism version 5.03 (GraphPad Software, San Diego, Calif., USA). % Emax values represent the maximal effect of the test compound in percentage of the maximal effect of SRIF-14.
Reference Compound No. A, whose chemical name and corresponding structure are provided in Table V, was synthesized and its ability to activated hSSTR2 was determined by the same intracellular calcium mobilization assays using FLIPR Calcium 4 assay kit (Molecular Devices) and under the same experimental conditions for the test compounds, as described hereinabove, and the results thereof are provided in Table VI.
(A change in cytosolic calcium serves as a functional read-out for many receptors and channels.)

The target of a further test is T2, hSSTR1 (Homo sapiens, UniProt P30872).
T2 construct: expressed in transfected cells; membranes
The experiment in a line: Somatostatin receptor radioligand binding assay, hSSTR1. The note with it: CHO-K1 cell membranes, [125I-Tyr11]-SRIF-14; read-out: hSSTR1 Ki (nM) ± SEM. The protocol: as §1
as §2, with “C. […]” for “C.”

The target in another test is T3, hSSTR3 (Homo sapiens, UniProt P32745).
T3 construct: expressed in transfected cells; membranes
In words: Somatostatin receptor radioligand binding assay, hSSTR3. The note with it: CHO-K1 cell membranes, [125I-Tyr11]-SRIF-14; read-out: hSSTR3 Ki (nM) ± SEM. The protocol: as §1
as §2, with “C. […]” for “C.”

For the next test, the target named is T4, hSSTR5 (Homo sapiens, UniProt P35346).
T4 construct: expressed in transfected cells; membranes
The experiment in a line: Somatostatin receptor radioligand binding assay, hSSTR5. Particulars: CHO-K1 cell membranes, [125I-Tyr]-DPhe-cyclo(Cys-Tyr-DTrp-Lys-Val-Cys)-Thr-NH2; read-out: hSSTR5 Ki (nM) ± SEM. Here is the method: as §1
as §2, with “C. […]” for “C.”

The target of the next test is T5, hSSTR4 (Homo sapiens, UniProt P31391).
T5 construct: expressed in transfected cells; membranes
In words: Somatostatin receptor radioligand binding assay, hSSTR4. The note with it: CHO-K1 cell membranes, [125I-Tyr11]-SRIF-14; read-out: hSSTR4 Ki (nM) ± SEM. Here is the method: as §1
as §2, with “C. […]” for “C.”

The mark [3] stands for this setting: CHO-K1 cell membranes, [125I-Tyr]-seglitide, read-out: hSSTR2 Ki (nM) ± SEM.
Setting [4] is: cells expressing hSSTR2, calcium mobilization, read-out: hSSTR2 EC50 (nM) ± SEM.

T1 sequence (P30874 whole entry): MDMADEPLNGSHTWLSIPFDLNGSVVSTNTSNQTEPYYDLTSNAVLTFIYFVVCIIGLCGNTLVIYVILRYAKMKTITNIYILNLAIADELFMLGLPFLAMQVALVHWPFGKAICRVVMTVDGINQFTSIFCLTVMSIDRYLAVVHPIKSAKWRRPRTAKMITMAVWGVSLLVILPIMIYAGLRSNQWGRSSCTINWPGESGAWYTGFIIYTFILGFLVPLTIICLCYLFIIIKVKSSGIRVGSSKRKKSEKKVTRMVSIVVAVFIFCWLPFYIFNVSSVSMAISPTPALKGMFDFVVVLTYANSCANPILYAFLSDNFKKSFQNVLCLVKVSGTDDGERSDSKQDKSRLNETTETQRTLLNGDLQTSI
T4 sequence (P35346 whole entry): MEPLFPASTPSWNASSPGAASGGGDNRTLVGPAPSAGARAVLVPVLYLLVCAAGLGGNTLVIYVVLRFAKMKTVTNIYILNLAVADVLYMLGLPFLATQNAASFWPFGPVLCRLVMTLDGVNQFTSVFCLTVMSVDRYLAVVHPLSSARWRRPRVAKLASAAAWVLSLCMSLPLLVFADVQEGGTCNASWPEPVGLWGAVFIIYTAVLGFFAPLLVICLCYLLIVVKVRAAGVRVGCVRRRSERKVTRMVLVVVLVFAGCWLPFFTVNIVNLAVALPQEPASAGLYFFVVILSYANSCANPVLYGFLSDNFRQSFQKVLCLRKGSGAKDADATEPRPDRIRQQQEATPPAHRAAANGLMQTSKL
T5 sequence (P31391 whole entry): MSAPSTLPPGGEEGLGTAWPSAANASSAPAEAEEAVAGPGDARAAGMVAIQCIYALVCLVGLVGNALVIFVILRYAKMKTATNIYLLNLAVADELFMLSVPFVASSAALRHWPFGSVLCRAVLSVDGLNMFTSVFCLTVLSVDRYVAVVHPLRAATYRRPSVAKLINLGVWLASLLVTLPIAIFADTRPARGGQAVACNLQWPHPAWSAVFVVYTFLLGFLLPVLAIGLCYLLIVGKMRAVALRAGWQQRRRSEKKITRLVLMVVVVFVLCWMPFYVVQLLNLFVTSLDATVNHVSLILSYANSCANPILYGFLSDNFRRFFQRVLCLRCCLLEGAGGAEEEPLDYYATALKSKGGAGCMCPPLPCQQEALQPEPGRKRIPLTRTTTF
T3 sequence (P32745 whole entry): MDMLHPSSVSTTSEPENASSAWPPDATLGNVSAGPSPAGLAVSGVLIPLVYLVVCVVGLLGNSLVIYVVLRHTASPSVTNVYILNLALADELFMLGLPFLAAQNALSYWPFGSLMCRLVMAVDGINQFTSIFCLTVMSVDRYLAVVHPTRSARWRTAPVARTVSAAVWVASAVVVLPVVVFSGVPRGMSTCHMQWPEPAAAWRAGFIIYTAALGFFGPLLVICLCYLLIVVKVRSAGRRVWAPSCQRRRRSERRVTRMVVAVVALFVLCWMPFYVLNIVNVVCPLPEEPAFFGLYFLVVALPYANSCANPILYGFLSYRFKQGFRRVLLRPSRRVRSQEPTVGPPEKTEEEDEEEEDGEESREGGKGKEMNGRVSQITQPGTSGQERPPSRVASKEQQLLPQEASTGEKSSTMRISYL
T2 sequence (P30872 whole entry): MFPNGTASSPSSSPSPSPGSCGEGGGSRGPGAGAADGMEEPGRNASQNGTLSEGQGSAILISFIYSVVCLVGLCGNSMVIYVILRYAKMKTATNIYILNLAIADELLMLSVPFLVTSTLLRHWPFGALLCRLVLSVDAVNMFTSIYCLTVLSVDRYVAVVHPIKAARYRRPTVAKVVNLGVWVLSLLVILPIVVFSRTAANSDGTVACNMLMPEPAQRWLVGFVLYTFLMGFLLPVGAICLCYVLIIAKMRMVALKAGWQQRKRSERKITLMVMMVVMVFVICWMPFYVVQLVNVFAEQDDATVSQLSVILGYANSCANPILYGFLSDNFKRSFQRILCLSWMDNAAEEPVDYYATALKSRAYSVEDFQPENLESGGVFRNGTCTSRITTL

On hSSTR2 [1], `C[C@@H](O)[C@@H]1NC(=O)[C@H](CCCCN)NC(=O)[C@@H](Cc2c[nH]c3ccccc23)NC(=O)[C@H](Cc2ccccc2)NC(=O)[C@H](Cc2ccccc2)NC(=O)[C@H](CCCNC(=N)N)NC(=O)[C@H](NC[C@H](Cc2ccc(O)cc2)NC(=O)CCc2cn(CC(=O)N[C@H](CN[C@@H]3CCCCNC(=O)[C@H](Cc4ccc(O)cc4)NC(=O)[C@H]([C@@H](C)O)NC(=O)[C@H](CCCCN)NC(=O)[C@@H](Cc4c[nH]c5ccccc45)NC(=O)[C@H](Cc4ccccc4)NC(=O)[C@H](Cc4ccccc4)NC(=O)[C@H](CCCNC(=N)N)NC3=O)Cc3ccc(O)cc3)nn2)CCCCNC(=O)[C@H](Cc2ccc(O)cc2)NC1=O` [Compound 7, 1-[(ethan-2-oyl)-Tyr-psi(CH2NH)-cyclo(DLys-Arg-Phe-Phe-DTrp-Lys-Thr-Tyr)],4-[(propan-3-oyl)-Tyr-psi(CH2NH)-cyclo(DLys-Arg-Phe-Phe-DTrp-Lys-Thr-Tyr)]-1,2,3-triazole] gave a Ki of 0.17 nM. In addition, on hSSTR2 [2], the EC50 was determined as 28.5 ± 11.5 nM and the maximum response (Emax) came out at 97.4 ± 1.2%.
As for `C[C@@H](O)[C@@H]1NC(=O)[C@H](CCCCN)NC(=O)[C@@H](Cc2c[nH]c3ccccc23)NC(=O)[C@H](Cc2ccncc2)NC(=O)[C@H](Cc2ccccc2)NC(=O)[C@H](CCCNC(=N)N)NC(=O)[C@H](N)CCCCNC(=O)[C@H](Cc2ccccc2)NC1=O` [Compound 1, cyclo(DLys-Arg-Phe-4Pal-DTrp-Lys-Thr-Phe)] (HELM PEPTIDE1{[dK].R.F.[O=C([C@H](Cc1ccncc1)N[*:1])[*:2]].[dW].K.T.F}$PEPTIDE1,PEPTIDE1,1:R3-8:R2$$$V2.0), the Ki at hSSTR1 was more than 1000 nM; at hSSTR3, 16.3 ± 7.1 nM; on hSSTR2 [1] (setting [3]), 0.47 ± 0.03 nM; on hSSTR5 it was 0.31 ± 0.1 nM; at hSSTR4, 76.3 ± 12.6 nM. Further, the concentration for a half-maximal effect (EC50) at hSSTR2 [2] (setting [4]) turned out to be 9.1 ± 3.9 nM. Besides, the Emax on hSSTR2 [2] came to 96.3 ± 5.5%.
Consider `C[C@@H](O)[C@@H]1NC(=O)[C@H](CCCCN)NC(=O)[C@@H](Cc2c[nH]c3ccccc23)NC(=O)[C@H](Cc2ccncc2)NC(=O)[C@H](Cc2ccccc2)NC(=O)[C@H](CCCNC(=N)N)NC(=O)[C@H](NC[C@H](Cc2ccc(O)cc2)NC(=O)CCc2cn(CC(=O)N[C@H](CN[C@@H]3CCCCNC(=O)[C@H](Cc4ccccc4)NC(=O)[C@H]([C@@H](C)O)NC(=O)[C@H](CCCCN)NC(=O)[C@@H](Cc4c[nH]c5ccccc45)NC(=O)[C@H](Cc4ccncc4)NC(=O)[C@H](Cc4ccccc4)NC(=O)[C@H](CCCNC(=N)N)NC3=O)Cc3ccc(O)cc3)nn2)CCCCNC(=O)[C@H](Cc2ccccc2)NC1=O` [Compound 5, 1-[(ethan-2-oyl)-Tyr-psi(CH2NH)-cyclo(DLys-Arg-Phe-4Pal-DTrp-Lys-Thr-Phe)],4-[(propan-3-oyl)-Tyr-psi(CH2NH)-cyclo(DLys-Arg-Phe-4Pal-DTrp-Lys-Thr-Phe)]-1,2,3-triazole], for which the affinity on hSSTR2 [1] corresponds to a Ki of 0.08 nM. Further, on hSSTR2 [2], the EC50 came out at 3.3 nM and the Emax turned out to be 88.6 ± 1.1%.
On to `C[C@@H](O)[C@@H]1NC(=O)[C@H](CCCCN)NC(=O)[C@@H](Cc2c[nH]c3ccccc23)NC(=O)[C@H](Cc2ccccc2)NC(=O)[C@H](Cc2ccccc2)NC(=O)[C@H](CCCNC(=N)N)NC(=O)[C@H](NC[C@H](Cc2ccc(O)cc2)NC(=O)CCc2cn(CC(=O)N[C@H](CN[C@@H]3CCCCNC(=O)[C@H](Cc4ccc(F)cc4)NC(=O)[C@H]([C@@H](C)O)NC(=O)[C@H](CCCCN)NC(=O)[C@@H](Cc4c[nH]c5ccccc45)NC(=O)[C@H](Cc4ccccc4)NC(=O)[C@H](Cc4ccccc4)NC(=O)[C@H](CCCNC(=N)N)NC3=O)Cc3ccc(O)cc3)nn2)CCCCNC(=O)[C@H](Cc2ccc(F)cc2)NC1=O` [Compound 6, 1-[(ethan-2-oyl)-Tyr-psi(CH2NH)-cyclo(DLys-Arg-Phe-Phe-DTrp-Lys-Thr-4FPhe)],4-[(propan-3-oyl)-Tyr-psi(CH2NH)-cyclo(DLys-Arg-Phe-Phe-DTrp-Lys-Thr-4FPhe)]-1,2,3-triazole], for which affinity on hSSTR2 [1] was put at a Ki of 0.38 nM. Also, at hSSTR2 [2], the EC50 was 74.6 ± 15.6 nM and the maximal effect (Emax) turned out to be 93.6 ± 4.1%.
Turning to `C[C@@H](O)[C@@H]1NC(=O)[C@H](CCCCN)NC(=O)[C@@H](Cc2c[nH]c3ccccc23)NC(=O)[C@H](Cc2ccncc2)NC(=O)[C@H](Cc2ccccc2)NC(=O)[C@H](CCCNC(=N)N)NC(=O)[C@H](NC[C@@H](N)Cc2ccc(O)cc2)CCCCNC(=O)[C@H](Cc2ccccc2)NC1=O` [Compound 21, Tyr-psi(CH2NH)-cyclo(DLys-Arg-Phe-4Pal-DTrp-Lys-Thr-Phe)], the Ki was determined as 271 ± 160 nM on hSSTR1; 5 nM at hSSTR3; 0.02 ± 0.02 nM on hSSTR2 [1] (setting [3]); 0.32 nM at hSSTR5; 112 ± 18.6 nM at hSSTR4. Moreover, at hSSTR2 [2] (setting [4]), the EC50 amounted to 4.4 ± 3.7 nM. Besides, on hSSTR2 [2], the Emax was 103 ± 0.2%.

The term Ki denotes a dissociation constant, usually derived from enzyme kinetics or from competition with a known ligand. For orientation: EC50 means the concentration giving half of the maximal effect. By Emax is commonly meant the size of the effect at its maximum, as opposed to the concentration needed.
